According to US10413612B2, “Method of treating cancer with a biomaterial and a toll-like receptor agonist” (Dana-Farber Cancer Institute, Inc., priority 2016, dated 2019):
Where “and” joins values, the source holds several entries; their conditions need not be identical. Identical values can stand only once. One block for each molecule: values may come before it.

Columns and labels:
TLR8 = molecular target: T1, TLR8 (Homo sapiens, UniProt Q9NR97); settings: cited from earlier work
T1 construct: expressed in transfected cells; host or cells: HEK293
T1 sequence (Q9NR97 27-1041): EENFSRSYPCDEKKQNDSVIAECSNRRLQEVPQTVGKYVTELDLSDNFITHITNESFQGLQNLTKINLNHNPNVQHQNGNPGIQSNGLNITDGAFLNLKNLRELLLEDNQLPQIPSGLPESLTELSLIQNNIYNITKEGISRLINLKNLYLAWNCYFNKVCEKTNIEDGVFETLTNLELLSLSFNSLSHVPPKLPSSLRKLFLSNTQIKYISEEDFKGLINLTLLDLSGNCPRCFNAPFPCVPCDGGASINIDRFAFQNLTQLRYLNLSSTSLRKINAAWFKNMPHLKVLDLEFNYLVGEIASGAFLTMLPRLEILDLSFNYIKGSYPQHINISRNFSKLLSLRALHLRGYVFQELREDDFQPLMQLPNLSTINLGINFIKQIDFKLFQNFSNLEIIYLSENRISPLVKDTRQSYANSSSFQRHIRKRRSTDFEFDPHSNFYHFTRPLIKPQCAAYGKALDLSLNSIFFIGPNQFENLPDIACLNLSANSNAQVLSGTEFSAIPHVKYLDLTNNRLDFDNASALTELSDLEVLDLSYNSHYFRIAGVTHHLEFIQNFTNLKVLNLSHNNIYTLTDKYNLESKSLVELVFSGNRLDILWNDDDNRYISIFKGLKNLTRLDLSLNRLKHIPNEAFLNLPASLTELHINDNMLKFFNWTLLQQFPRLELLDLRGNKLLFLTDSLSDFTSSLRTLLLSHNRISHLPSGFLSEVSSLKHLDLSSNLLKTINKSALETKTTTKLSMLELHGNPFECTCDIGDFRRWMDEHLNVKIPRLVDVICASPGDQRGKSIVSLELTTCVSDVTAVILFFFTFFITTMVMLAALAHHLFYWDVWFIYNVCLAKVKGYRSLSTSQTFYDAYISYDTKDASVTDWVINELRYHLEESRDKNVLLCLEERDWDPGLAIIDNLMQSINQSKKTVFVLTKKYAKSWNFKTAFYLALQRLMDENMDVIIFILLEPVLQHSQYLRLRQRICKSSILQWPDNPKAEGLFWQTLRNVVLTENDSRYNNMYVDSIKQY

TLR7 [1] = molecular target: T2, TLR7 (Homo sapiens, UniProt Q9NYK1); settings: TLR7-transfected HEK293 cells; cited from earlier work
T2 construct: expressed in transfected cells; host or cells: HEK293
T2 sequence (Q9NYK1 27-1049): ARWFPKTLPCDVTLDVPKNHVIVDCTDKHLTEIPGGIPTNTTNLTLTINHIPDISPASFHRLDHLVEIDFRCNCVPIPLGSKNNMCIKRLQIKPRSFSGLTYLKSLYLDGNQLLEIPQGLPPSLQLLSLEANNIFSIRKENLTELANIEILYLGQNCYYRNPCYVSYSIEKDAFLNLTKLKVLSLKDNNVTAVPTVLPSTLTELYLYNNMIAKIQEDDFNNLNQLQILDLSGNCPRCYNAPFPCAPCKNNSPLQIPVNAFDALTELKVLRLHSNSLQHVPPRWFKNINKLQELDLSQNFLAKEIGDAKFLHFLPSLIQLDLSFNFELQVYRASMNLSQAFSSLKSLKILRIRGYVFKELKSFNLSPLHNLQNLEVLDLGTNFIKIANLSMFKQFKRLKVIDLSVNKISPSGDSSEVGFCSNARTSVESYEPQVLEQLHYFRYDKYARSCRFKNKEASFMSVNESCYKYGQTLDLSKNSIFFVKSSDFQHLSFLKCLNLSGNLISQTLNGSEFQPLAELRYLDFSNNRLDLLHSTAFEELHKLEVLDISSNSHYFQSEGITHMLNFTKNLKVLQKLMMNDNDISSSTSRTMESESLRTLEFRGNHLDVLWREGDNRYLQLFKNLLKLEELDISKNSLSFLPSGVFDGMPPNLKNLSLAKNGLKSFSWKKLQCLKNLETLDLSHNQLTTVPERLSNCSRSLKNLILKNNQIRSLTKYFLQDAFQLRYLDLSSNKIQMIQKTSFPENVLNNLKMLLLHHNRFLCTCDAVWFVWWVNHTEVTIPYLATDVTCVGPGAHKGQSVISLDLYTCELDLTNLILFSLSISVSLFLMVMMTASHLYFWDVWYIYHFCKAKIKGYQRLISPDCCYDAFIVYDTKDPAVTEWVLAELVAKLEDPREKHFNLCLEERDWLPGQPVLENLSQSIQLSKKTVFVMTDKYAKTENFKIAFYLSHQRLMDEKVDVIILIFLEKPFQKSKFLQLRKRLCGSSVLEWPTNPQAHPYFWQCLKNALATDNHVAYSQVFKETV

TLR7 [2] = molecular target: T2, TLR7; settings: cited from earlier work
[3] = In vivo release study (fluorescence IVIS imaging); set-up: species or system non-tumor-bearing mice; settings: mouse, in vivo
Source text: To evaluate the in vivo release profiles of Cy7 carboxylic acid (a model compound for R848), anti-PD-1, IL-15sa, and 2′3′-cGAMP, hydrogels containing the fluorophore or one of the fluorescently labeled payloads were surgically implanted into non-tumor-bearing mice.
The loading and release properties of the hydrogel were examined in additional experiments. […] It was then confirmed that the hydrogel extends the release of the small molecules and biologics in vivo. Cy7 carboxylic acid (Cy7-CA) was used as a model small molecule payload, as its physical properties are very similar to those of resiquimod (R848). Cy7-CA was administered to non-tumor-bearing mice, either in solution or loaded in a scaffold placed by the fourth mammary fat pad. The mice were assessed by fluorescence IVIS imaging (FIG. 37B), and the data were quantified (FIG. 37C). Whereas a loss of ˜60% of the signal was detected within two hours of administration of the fluorophore in solution, this amount of signal decay required 24 hours for the fluorophore loaded in the hydrogel. Over this time course, there was a […] for the latter group, on average.
To confirm that the hydrogel sustains the release of the small molecule and biologics in vivo, fluorescently labeled versions of 2 ? […]

[4] = system: 4T1-Luc2 syngeneic breast cancer cells; settings: for survival with compromised immune system: NK, CD8+ T or CD4+ T cells depleted or IFNAR1 neutralized; for survival benefit as innate immune activator component: hydrogel with IL-15sa and anti-PD-1 (devices 1, 14-16); for efficacy (tumor recurrence, metastasis, survival), in words: scaffold placed in tumor resection site 10 days after inoculation
Procedure: Seven-week-old female Balb/c mice were inoculated orthotopically with 100,000 4T1-Luc2 syngeneic breast cancer cells (into the fourth mammary fat pad). After 10 days, the mice were anesthetized, tumors were surgically resected, and compositions were placed in the resection site. […] The order of surgeries avoided systematic error by dividing up the groups. Standard follow-up care (wound clips, analgesic) was provided.
For the metastatic breast cancer model, 10^5 4T1-Luc2 or 4T1 cells (in 30 μl DPBS) were inoculated orthotopically into the fourth mammary pad of mice to generate a local tumor mass. Cells were injected without any incision to expose the fat pad. Mice were randomly assigned to treatment groups, and surgery was performed 10 days after tumor inoculation. For the metastatic melanoma and lung cancer models, 10^6B16-BL6 or 5×10^5 LLC cells (in 100 μl DPBS) were inoculated subcutaneously in mice to generate a local tumor mass. Mice were randomly assigned to treatment groups, and surgery was performed when tumor volumes reached ˜600 mm^3. While mice were kept under anesthesia at 2% isoflurane, the tumor was resected, and the hydrogel was placed in the site of the resultant cavity at the time of surgery. The wound was closed with medical clips. Control experiments were performed in which therapy was administered in solution at the site of surgery, intraperitoneally, or intravenously. For tumor re-challenge experiments, 10^4 4T1-Luc2 cells were inoculated in the contralateral fourth mammary fat pad. The surgeries were performed independently at least three times, and the surgeon was often blinded.
After surgery, mice were inspected weekly for tumor recurrence and distal metastasis by bioluminescence imaging (BLI). To this end, 10 min after intraperitoneal injection of D-luciferin (150 mg/kg), a substrate of Luc2, the mice were anesthetized with 2% isoflurane and imaged using an IVIS Spectrum In Vivo Imaging System (Perkin Elmer).
A series of compositions described above in Table 2 were evaluated in viva. In each group of evaluations, seven-week-old female Balb/c mice were inoculated orthotopically with 100,000 4T1-Luc2 syngeneic breast cancer cells (into the fourth mammary fat pad). After 10 days, mice were anesthetized, tumors were surgically resected, and the composition was placed in the resection site. Tumor relapse and metastasis were monitored via imaging over the course of 6 weeks.
Female BALB/cJ mice were inoculated orthotopically with 4T1-Luc2 breast cancer cells in their fourth mammary fat pad. Nine days later, the mice were imaged by bioluminescent IVIS imaging to confirm that the size of the tumors was consistent across animals to enable randomization into groups. On day 10 post-tumor inoculation, tumors (˜100 mm^3) were resected, and device 1 was placed in the tumor resection site. Controls included no treatment (sham), empty hydrogel (device 8/hydrogel 4), or delivery of the triple combination in solution (S+I+P)—via intraperitoneal injection, intravenous injection, or local administration.

4T1-Luc2 cells [5] = experiment: Non-resected orthotopic 4T1-Luc2 tumors: peritumoral hydrogel or intratumoral injection; type: in vivo, mice; settings: single intratumoral (IT) injection
Source text: In certain embodiments, intraoperative placement of the immunotherapy-loaded hydrogel is required for therapeutic benefit.

4T1-Luc2 cells [6] = experiment: Tumor re-challenge of surviving mice; type: in vivo; settings: mice with durable survival after loaded hydrogel
Procedure: The wound was closed with medical clips.
To gain insights into the soluble factors that are associated with the activation of innate and adaptive immune cells, the levels of cytokines in peripheral blood were measured. At multiple time points post-surgery, plasma was collected and subsequently analyzed by multiplexing laser bead technology. […] Indeed, the induction of a memory response was confirmed by re-challenging the surviving mice, 100% of which rejected the freshly inoculated 4T1-Luc2 cells (FIG. 94A).

Molecule: CCCCNc1nc(N)c2nc(O)n(Cc3ccc(C(=O)NCC(=O)O)cc3)c2n1 [CL264]
concentration without stimulation of TLR8 (TLR8): > 10 µg/mL
activating concentration, times less than imiquimod (TLR7 [1]): 5-10 times
concentration inducing NF-κB activation (TLR7 [1]): 0.1 µM

Molecule: CCCCNc1nc(N)c2nc(O)n(Cc3ccc(C(=O)NCC(=O)NCCCNCCCCNCCCN)cc3)c2n1 [CL307, N1-glycinyl[4-((6-amino-2-(butylamino)-8-hydroxy-9H-purin-9-yl)methyl)benzoyl]spermine]
concentration inducing robust NF-κB activation (TLR7 [2]): ≤ 20 nM and ≤ 10 ng/ml

increase in signal, hydrogel vs solution [3]: roughly three
Molecule: C[N+]1=C(/C=C/C2=CC(=C/C=C3/N(CCCCCC(=O)O)c4ccccc4C3(C)C)CCC2)C(C)(C)c2ccccc21.[Cl-] [Cy7-CA, Cy7 carboxylic acid]

Molecule: CCOCc1nc2c(N)nc3ccccc3c2n1CC(C)(C)O [Device R848, resiquimod]
survival with compromised immune system [4]: exhibited reduced survival
survival benefit by mode of administration ([4]; hydrogel vs solution (weekly IV, weekly IP, local with empty hydrogel)): survival benefit was observed only when R848 was loaded in the hydrogel
survival benefit as innate immune activator component [4]: conferred meaningful benefit
tolerability (body weight) ([4]; mouse, in vivo): well tolerated
efficacy (tumor recurrence, metastasis, survival), in words [4]: prevented most effectively
survival benefit ([4]; three consecutive daily IP injections (200 μg)): failed to confer robust survival benefit
survival (4T1-Luc2 cells [5]): did not prolong survival
surviving mice that rejected / survived re-challenge (4T1-Luc2 cells [6]): 100%

Molecule: Cc1cccc(-c2[nH]c(CNc3ccccc3F)nc2-c2ccc3ncnn3c2)n1 [EW7197]
efficacy of hydrogel with IL-15 superagonist, anti-PD-1 and the small molecule ([4]; small molecule dissolved in DMSO): provided less efficacious results

Molecule: Nc1ncnc2c1ncn2C1O[C@@H]2CO[P@@](=O)([S-])O[C@H]3[C@@H](O)[C@H](n4cnc5c(N)ncnc54)O[C@@H]3CO[P@@](=O)([S-])O[C@@H]1[C@@H]2O.[Na+].[Na+] (stereo partly shown) [STING-RR, 2′3′-c-di-AM(PS)2 (Rp,Rp)]
survival with compromised immune system [4]: exhibited reduced survival
efficacy (tumor recurrence, metastasis, survival), in words [4]: prevented most effectively
survival (4T1-Luc2 cells [5]): did not prolong survival
surviving mice that rejected / survived re-challenge (4T1-Luc2 cells [6]): 100%

Molecule: CCOC(=O)C1=Cc2ccc(-c3cccc(C#N)c3)cc2N=C(N)C1 [TL8-506]
potency in inducing NF-κB activation relative to CL075 (TLR8; TLR8-transfected HEK293 cells): ~25 ×
potency in inducing NF-κB activation relative to R848 (TLR8; TLR8-transfected HEK293 cells): ~50 ×

Molecule: IL-21: pleiotropic cytokine
survival benefit as cytokine component ([4]; hydrogel with 2′3′-cGAMP and anti-PD-1 (devices 1, 13)): had little impact

Molecule: polyinosinic:polycytidylic acid [poly(I:C)]
survival benefit as innate immune activator component [4]: had little impact
